# Reference: patent publication US10710978B2, “STK4 inhibitors for treatment of hematologic malignancies” (Dana-Farber Cancer Institute, Inc., priority 2015, dated 2020)
# Where two headings read alike, the source gives them in different places.
# Tests used:
# Assay in all cases: KiNativ assay
# Format in all cases: binding
# Details in all cases: H929 live cell
# [1] = system: KSR1, KSR2
# Description: (§1) Biochemical IC50s of the compounds of the present disclosure against various kinases were measured in a KiNativ assay. Compounds were screened in duplicate at 10 μM in H929 live cell. IC50 was measured via Mass spectroscopy (MS).
# [2] = molecular target: CDK5 (Homo sapiens (Human), UniProt Q00535)
# CDK5, sequence (Q00535 whole entry): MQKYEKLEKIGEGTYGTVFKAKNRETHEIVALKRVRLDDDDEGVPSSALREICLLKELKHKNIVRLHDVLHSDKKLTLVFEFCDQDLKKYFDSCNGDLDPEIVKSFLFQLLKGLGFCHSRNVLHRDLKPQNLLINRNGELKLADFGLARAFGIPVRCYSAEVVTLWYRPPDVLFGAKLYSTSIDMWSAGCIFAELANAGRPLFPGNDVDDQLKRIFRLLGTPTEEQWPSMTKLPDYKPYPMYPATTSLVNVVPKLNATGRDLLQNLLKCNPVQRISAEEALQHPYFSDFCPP
# Description: as §1
# [3] = system: MAP3K2, MAP3K3
# Description: as §1
# [4] = molecular target: SRPK1 (Homo sapiens (Human), UniProt Q96SB4)
# Description: as §1
# [5] = molecular target: LKB1 (Homo sapiens (Human), UniProt Q15831)
# Description: as §1
# [6] = molecular target: IRE1 (Homo sapiens (Human), UniProt O75460)
# Description: as §1
# [7] = molecular target: MASTL (Homo sapiens (Human), UniProt Q96GX5)
# MASTL, sequence (Q96GX5 whole entry): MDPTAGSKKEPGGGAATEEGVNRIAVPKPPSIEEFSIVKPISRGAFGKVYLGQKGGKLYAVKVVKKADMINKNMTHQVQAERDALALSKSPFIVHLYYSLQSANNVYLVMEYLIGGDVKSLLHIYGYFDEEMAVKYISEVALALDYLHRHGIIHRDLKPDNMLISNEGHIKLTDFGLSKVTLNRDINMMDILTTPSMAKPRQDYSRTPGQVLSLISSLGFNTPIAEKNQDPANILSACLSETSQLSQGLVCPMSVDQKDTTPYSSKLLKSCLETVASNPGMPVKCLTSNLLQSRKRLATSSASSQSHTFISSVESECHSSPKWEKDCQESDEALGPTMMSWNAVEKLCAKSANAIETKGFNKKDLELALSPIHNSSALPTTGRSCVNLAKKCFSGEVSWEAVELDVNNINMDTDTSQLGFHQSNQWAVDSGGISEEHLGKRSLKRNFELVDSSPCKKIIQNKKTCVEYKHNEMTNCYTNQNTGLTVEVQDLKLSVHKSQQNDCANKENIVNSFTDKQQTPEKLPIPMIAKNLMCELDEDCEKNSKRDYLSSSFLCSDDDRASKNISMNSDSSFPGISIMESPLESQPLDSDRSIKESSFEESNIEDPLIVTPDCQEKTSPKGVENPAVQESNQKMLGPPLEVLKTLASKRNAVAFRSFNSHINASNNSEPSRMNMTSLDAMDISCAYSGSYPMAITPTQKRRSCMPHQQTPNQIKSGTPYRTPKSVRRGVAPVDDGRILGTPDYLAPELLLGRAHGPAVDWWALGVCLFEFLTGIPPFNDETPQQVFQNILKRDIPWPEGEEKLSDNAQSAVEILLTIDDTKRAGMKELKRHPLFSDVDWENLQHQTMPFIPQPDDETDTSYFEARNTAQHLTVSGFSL
# Description: as §1
# [8] = molecular target: GCN2 domain2 (Homo sapiens (Human), UniProt Q9P2K8)
# Description: as §1
# [9] = molecular target: RSK1 domain1 (Homo sapiens (Human), UniProt Q15418)
# Description: as §1
# [10] = molecular target: STLK5 (Homo sapiens (Human), UniProt Q7RTN6)
# STLK5, sequence (Q7RTN6 whole entry): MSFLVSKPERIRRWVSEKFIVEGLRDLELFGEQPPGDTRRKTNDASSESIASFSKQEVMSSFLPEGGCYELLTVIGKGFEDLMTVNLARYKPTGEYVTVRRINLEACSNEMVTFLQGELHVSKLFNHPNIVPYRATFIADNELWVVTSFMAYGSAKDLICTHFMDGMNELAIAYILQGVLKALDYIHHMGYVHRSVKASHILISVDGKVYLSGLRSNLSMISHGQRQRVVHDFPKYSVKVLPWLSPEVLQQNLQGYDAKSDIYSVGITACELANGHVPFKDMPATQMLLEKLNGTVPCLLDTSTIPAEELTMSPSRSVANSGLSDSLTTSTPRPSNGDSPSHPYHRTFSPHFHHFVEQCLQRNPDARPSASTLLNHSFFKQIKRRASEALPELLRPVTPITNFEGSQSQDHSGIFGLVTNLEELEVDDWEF
# Description: as §1
# [11] = system: PITSLRE
# Description: as §1
# [12] = molecular target: CDC2 (Homo sapiens (Human), UniProt P06493)
# CDC2, sequence (P06493 whole entry): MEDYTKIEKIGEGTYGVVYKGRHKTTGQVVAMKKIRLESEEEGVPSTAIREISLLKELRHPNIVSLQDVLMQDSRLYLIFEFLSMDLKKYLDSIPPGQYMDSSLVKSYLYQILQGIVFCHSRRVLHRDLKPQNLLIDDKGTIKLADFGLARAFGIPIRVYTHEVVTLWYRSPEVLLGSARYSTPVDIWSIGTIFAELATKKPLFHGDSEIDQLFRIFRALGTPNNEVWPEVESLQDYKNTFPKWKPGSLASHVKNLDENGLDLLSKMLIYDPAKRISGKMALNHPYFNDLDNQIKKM
# Description: as §1
# [13] = molecular target: JAK3 domain2 (Homo sapiens (Human), UniProt P52333)
# Description: as §1
# [14] = molecular target: CDK2 (Homo sapiens (Human), UniProt P24941)
# Description: as §1
# [15] = molecular target: HPK1 (Homo sapiens (Human), UniProt Q92918)
# Description: as §1
# [16] = molecular target: PLK1 (Homo sapiens (Human), UniProt P53350)
# Description: as §1
# [17] = molecular target: SGK3 (Homo sapiens (Human), UniProt Q96BR1)
# Description: as §1
# [18] = system: ABL, ARG
# Description: as §1
# [19] = molecular target: NuaK1 (Homo sapiens (Human), UniProt O60285)
# NuaK1, sequence (O60285 whole entry): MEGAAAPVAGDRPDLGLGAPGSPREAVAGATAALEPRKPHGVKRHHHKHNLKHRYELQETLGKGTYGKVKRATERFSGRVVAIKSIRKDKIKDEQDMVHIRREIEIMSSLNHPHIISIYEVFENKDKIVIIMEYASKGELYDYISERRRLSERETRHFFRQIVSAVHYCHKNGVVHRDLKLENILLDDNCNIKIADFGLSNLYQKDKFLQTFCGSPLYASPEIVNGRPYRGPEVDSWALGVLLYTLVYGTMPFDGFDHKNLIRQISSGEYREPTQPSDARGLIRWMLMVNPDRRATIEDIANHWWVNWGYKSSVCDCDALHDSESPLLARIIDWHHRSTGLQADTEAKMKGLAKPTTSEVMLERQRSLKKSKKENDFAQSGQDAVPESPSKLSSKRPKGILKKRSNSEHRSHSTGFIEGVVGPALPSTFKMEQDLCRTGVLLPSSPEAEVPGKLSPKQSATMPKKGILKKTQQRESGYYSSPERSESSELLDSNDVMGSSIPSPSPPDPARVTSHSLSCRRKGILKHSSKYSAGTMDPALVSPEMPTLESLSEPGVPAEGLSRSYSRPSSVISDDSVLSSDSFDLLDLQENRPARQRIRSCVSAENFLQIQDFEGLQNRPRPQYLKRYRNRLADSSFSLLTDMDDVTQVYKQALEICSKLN
# Description: as §1
# [20] = molecular target: CK1a (Homo sapiens (Human), UniProt P48729)
# Description: as §1
# [21] = molecular target: ULK1 (Homo sapiens (Human), UniProt O75385)
# Description: as §1
# [22] = molecular target: LYN (Homo sapiens (Human), UniProt P07948)
# Description: as §1
# [23] = molecular target: PRPK (Homo sapiens (Human), UniProt Q96S44)
# Description: as §1
# [24] = molecular target: IKKb (Homo sapiens (Human), UniProt O14920)
# IKKb, sequence (O14920 whole entry): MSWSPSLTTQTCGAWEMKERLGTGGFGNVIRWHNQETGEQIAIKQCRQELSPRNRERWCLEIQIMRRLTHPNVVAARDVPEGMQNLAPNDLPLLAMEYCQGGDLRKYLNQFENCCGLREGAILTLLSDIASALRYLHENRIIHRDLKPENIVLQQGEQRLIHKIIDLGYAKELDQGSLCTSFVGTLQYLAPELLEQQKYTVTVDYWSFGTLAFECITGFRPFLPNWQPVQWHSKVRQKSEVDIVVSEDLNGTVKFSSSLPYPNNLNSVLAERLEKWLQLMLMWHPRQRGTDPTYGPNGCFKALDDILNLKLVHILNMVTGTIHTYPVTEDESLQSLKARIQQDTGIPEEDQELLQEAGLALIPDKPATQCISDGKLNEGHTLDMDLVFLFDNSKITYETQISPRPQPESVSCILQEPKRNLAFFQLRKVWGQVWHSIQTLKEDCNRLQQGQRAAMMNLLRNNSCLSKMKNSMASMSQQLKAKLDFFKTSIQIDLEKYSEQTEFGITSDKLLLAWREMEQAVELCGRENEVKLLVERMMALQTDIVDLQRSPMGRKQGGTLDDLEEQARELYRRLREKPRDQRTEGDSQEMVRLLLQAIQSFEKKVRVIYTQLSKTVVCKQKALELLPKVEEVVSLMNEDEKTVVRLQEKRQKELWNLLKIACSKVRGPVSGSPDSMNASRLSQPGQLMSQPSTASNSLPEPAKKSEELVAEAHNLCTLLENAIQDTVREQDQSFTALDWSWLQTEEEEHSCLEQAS
# Description: as §1
# [25] = molecular target: PIP4K2A (Homo sapiens (Human), UniProt P48426)
# Description: as §1
# [26] = molecular target: IKKa (Homo sapiens (Human), UniProt O15111)
# Description: as §1
# [27] = molecular target: MLKL (Homo sapiens (Human), UniProt Q8NB16)
# Description: as §1
# [28] = molecular target: MARK3 (Homo sapiens (Human), UniProt P27448)
# Description: as §1
# [29] = molecular target: CK1g2 (Homo sapiens (Human), UniProt P78368)
# Description: as §1
# [30] = molecular target: MAP2K5 (Homo sapiens (Human), UniProt Q13163)
# Description: as §1
# [31] = system: IKKe, TBK1
# Description: as §1
# [32] = molecular target: PKN1 (Homo sapiens (Human), UniProt Q16512)
# PKN1, sequence (Q16512 whole entry): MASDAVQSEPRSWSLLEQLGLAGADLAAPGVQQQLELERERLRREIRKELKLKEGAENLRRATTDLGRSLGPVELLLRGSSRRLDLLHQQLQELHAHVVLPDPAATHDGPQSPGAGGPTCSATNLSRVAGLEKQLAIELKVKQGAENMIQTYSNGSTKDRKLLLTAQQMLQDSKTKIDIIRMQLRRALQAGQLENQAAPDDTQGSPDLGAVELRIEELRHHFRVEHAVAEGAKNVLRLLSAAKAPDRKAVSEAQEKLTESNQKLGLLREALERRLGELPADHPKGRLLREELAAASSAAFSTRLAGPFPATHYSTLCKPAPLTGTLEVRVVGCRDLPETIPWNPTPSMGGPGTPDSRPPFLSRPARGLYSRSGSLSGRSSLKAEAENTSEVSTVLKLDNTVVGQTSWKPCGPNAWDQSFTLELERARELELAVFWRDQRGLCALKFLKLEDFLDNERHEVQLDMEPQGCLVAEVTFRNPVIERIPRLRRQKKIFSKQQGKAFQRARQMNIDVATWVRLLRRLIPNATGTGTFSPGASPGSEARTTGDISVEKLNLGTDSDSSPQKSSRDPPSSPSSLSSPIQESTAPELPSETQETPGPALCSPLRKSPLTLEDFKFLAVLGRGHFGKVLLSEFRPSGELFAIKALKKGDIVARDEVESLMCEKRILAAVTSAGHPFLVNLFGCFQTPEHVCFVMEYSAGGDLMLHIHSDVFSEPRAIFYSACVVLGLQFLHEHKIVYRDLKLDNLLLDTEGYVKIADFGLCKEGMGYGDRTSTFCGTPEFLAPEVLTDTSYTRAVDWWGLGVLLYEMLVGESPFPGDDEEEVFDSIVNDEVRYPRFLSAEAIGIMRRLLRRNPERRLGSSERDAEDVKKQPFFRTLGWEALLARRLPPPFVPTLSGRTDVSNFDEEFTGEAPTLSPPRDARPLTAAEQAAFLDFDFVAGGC
# Description: as §1
# [33] = molecular target: NEK4 (Homo sapiens (Human), UniProt P51957)
# Description: as §1
# [34] = molecular target: SRPK2 (Homo sapiens (Human), UniProt P78362)
# SRPK2, sequence (P78362 whole entry): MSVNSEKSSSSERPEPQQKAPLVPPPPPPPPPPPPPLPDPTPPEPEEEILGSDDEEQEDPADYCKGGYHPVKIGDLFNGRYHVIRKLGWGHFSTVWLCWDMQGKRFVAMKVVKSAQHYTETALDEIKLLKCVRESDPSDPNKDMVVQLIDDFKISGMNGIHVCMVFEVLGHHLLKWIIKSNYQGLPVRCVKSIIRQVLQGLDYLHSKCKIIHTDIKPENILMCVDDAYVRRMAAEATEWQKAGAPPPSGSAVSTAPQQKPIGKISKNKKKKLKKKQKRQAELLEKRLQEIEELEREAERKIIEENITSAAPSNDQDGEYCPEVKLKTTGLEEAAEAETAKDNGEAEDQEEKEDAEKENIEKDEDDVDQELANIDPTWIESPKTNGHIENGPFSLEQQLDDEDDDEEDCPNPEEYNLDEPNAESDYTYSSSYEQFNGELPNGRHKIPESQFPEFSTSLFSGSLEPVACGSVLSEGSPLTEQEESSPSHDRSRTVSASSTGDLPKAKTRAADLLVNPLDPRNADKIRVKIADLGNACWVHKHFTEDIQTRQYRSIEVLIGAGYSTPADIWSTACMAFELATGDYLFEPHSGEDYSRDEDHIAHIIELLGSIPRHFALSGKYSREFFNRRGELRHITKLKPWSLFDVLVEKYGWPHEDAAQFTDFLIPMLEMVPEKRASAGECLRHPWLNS
# Description: as §1
smiles,measurement,setting,value
"Nc1ncc(-c2cccc([N+](=O)[O-])c2F)cc1-c1ccc2c(c1)CCNC2=O [Compound I-9, 6-(2-amino-5-(2-fluoro-3-nitrophenyl)pyridin-3-yl)-3,4-dihydroisoquinolin-1(2H)-one]",% inhibition (range),[1]; 10 μM,0.0%
same,inhibition (10 μM),[1],−51.3%
same,inhibition at 10 µM,[2]; read-out: % inhibition (range),75 to 90%
same,inhibition at 10 µM,[2]; read-out: inhibition (10 μM),78.7%
same,% inhibition (range),[3]; 10 μM,35-50%
same,inhibition (10 μM),[3],43.2%
same,inhibition at 10 µM,[4]; read-out: % inhibition (range),0%
same,inhibition at 10 µM,[4]; read-out: inhibition (10 μM),32.8%
same,inhibition at 10 µM,[5]; read-out: % inhibition (range),0%
same,inhibition at 10 µM,[5]; read-out: inhibition (10 μM),4.5%
same,inhibition at 10 µM,[6]; read-out: % inhibition (range),0%
same,inhibition at 10 µM,[6]; read-out: inhibition (10 μM),-50.1%
same,inhibition at 10 µM,[7]; read-out: % inhibition (range),0%
same,inhibition at 10 µM,[7]; read-out: inhibition (10 μM),-18.4%
same,inhibition at 10 µM,[8]; read-out: % inhibition (range),0%
same,inhibition at 10 µM,[8]; read-out: inhibition (10 μM),15.5%
same,inhibition at 10 µM,[9]; read-out: % inhibition (range),0%
same,inhibition at 10 µM,[9]; read-out: inhibition (10 μM),24%
same,inhibition at 10 µM,[10]; read-out: % inhibition (range),0%
same,inhibition at 10 µM,[10]; read-out: inhibition (10 μM),-14.9%
same,% inhibition (range),[11]; 10 μM,35-50%
same,inhibition (10 μM),[11],38.9%
same,inhibition at 10 µM,[12]; read-out: % inhibition (range),0%
same,inhibition at 10 µM,[12]; read-out: inhibition (10 μM),-24.7%
same,inhibition at 10 µM,[13]; read-out: % inhibition (range),0%
same,inhibition at 10 µM,[13]; read-out: inhibition (10 μM),2.6%
same,inhibition at 10 µM,[14]; read-out: % inhibition (range),50 to 75%
same,inhibition at 10 µM,[14]; read-out: inhibition (10 μM),68.5%
same,inhibition at 10 µM,[15]; read-out: % inhibition (range),> 90%
same,inhibition at 10 µM,[15]; read-out: inhibition (10 μM),97.5%
same,inhibition at 10 µM,[16]; read-out: % inhibition (range),0%
same,inhibition at 10 µM,[16]; read-out: inhibition (10 μM),14.2%
same,inhibition at 10 µM,[17]; read-out: % inhibition (range),50 to 75%
same,inhibition at 10 µM,[17]; read-out: inhibition (10 μM),51.6%
same,% inhibition (range),[18]; 10 μM,75-90%
same,inhibition (10 μM),[18],75.7%
same,inhibition (10 μM),[19],>90%
same,inhibition at 10 µM,[19]; read-out: % inhibition (range),> 90%
same,inhibition at 10 µM,[19]; read-out: inhibition (10 μM),91%
same,inhibition at 10 µM,[20]; read-out: % inhibition (range),75 to 90%
same,inhibition at 10 µM,[20]; read-out: inhibition (10 μM),84.6%
same,inhibition at 10 µM,[21]; read-out: % inhibition (range),0%
same,inhibition at 10 µM,[21]; read-out: inhibition (10 μM),-19.6%
same,inhibition at 10 µM,[22]; read-out: % inhibition (range),0%
same,inhibition at 10 µM,[22]; read-out: inhibition (10 μM),-12.4%
same,inhibition at 10 µM,[23]; read-out: % inhibition (range),0%
same,inhibition at 10 µM,[23]; read-out: inhibition (10 μM),-5%
same,inhibition at 10 µM,[24]; read-out: % inhibition (range),0%
same,inhibition at 10 µM,[24]; read-out: inhibition (10 μM),-15%
same,inhibition at 10 µM,[25]; read-out: % inhibition (range),0%
same,inhibition at 10 µM,[25]; read-out: inhibition (10 μM),10.2%
same,inhibition at 10 µM,[26]; read-out: % inhibition (range),0%
same,inhibition at 10 µM,[26]; read-out: inhibition (10 μM),-18.4%
same,inhibition at 10 µM,[27]; read-out: % inhibition (range),50 to 75%
same,inhibition at 10 µM,[27]; read-out: inhibition (10 μM),66.9%
same,inhibition at 10 µM,[28]; read-out: % inhibition (range),75 to 90%
same,inhibition at 10 µM,[28]; read-out: inhibition (10 μM),78.3%
same,inhibition at 10 µM,[29]; read-out: % inhibition (range),> 90%
same,inhibition at 10 µM,[29]; read-out: inhibition (10 μM),> 90%
same,inhibition at 10 µM,[30]; read-out: % inhibition (range),75 to 90%
same,inhibition at 10 µM,[30]; read-out: inhibition (10 μM),75.2%
same,% inhibition (range),[31]; 10 μM,0.0%
same,inhibition (10 μM),[31],21.2%
same,inhibition at 10 µM,[32]; read-out: % inhibition (range),50 to 75%
same,inhibition at 10 µM,[32]; read-out: inhibition (10 μM),56.9%
same,inhibition at 10 µM,[33]; read-out: % inhibition (range),50 to 75%
same,inhibition at 10 µM,[33]; read-out: inhibition (10 μM),67%
same,inhibition at 10 µM,[34]; read-out: % inhibition (range),0%
same,inhibition at 10 µM,[34]; read-out: inhibition (10 μM),18.9%
